Experimental data from ChEMBL document CHEMBL1201862, “PubChem BioAssay data set” (2004).
Activity calls are given as the source filed them.

What was measured:
[1] = molecular target: Scavenger receptor class B member 1 (Mus musculus, UniProt Q61009); assay: inhibitors of SR-BI mediated HDL lipid uptake, dose response, ldlA[mSR-BI] cells, fluorescence, cherry pick (AID 493194); type: functional, cell-based;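 further: cellular uptake of fluorescent DiI-labeled HDL measured as cell fluorescence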
Estrogen receptor beta [2] = molecular target: T1, Estrogen receptor beta (Homo sapiens, UniProt Q92731);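 further: recombinant ER-beta bound to coactivator SRC1 peptide in presence of estradiol agonist; inhibitors block coactivator peptide binding and lower the FRET signal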
T1 sequence (Q92731 whole entry): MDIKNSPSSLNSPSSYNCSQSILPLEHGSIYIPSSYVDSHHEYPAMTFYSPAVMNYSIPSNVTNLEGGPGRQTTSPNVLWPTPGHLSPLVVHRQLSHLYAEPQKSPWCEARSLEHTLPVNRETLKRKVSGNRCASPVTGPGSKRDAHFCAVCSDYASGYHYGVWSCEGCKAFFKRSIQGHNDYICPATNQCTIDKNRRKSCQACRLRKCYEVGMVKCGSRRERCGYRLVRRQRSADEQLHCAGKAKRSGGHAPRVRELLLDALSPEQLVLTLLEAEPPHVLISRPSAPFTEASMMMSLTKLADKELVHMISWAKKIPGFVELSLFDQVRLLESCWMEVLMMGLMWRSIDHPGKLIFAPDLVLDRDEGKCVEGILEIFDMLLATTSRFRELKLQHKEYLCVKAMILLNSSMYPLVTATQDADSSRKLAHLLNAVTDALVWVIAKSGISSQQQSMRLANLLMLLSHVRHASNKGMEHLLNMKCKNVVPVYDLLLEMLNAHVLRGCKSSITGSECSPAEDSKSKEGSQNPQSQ

[3] = cytotoxicity in HEK-293T cells, dose response, cytotoxicity control for TCR NF-kB inhibitor project, luminescence, T-cell screen hits (AID 489026); type: functional, cell-based;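 further: cells exposed to compound about 14 hours before the viability readout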
Estrogen receptor = molecular target: T2, Estrogen receptor (Homo sapiens, UniProt P03372);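 further: potency for inhibiting coactivator peptide recruitment to the receptor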
T2 sequence (P03372 whole entry): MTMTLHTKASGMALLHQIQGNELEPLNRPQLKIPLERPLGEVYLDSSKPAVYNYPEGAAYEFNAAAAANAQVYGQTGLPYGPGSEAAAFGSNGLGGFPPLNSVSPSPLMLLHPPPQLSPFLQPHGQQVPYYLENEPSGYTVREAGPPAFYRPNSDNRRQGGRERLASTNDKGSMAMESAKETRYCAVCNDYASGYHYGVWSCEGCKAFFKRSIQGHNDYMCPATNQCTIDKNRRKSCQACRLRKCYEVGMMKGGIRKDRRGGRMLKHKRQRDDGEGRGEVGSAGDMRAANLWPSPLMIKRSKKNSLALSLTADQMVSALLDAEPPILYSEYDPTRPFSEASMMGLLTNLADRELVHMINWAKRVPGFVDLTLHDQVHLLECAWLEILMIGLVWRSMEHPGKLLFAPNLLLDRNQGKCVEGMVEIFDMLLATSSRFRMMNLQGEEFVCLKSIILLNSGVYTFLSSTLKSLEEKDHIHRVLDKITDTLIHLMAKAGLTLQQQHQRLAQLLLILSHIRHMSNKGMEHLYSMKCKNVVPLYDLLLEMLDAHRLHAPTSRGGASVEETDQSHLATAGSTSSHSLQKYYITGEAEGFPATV

Estrogen receptor beta [4] = molecular target: T1, Estrogen receptor beta; assay: ERβ–SRC-3 coactivator interaction inhibitors, confirmation, orthogonal assay, biochemical, ELISA, streptavidin-HRP readout (AID 1060)
[5] = molecular target: Cyclin-dependent kinase 5/CDK5 activator 1 (Homo sapiens, UniProt Q00535); assay: CDK5/p35 kinase inhibitors, dose response, biochemical, cherry-picked samples, set 2 (AID 504545)
Chain of Cyclin-dependent kinase 5/CDK5 activator 1 (Q00535 whole entry): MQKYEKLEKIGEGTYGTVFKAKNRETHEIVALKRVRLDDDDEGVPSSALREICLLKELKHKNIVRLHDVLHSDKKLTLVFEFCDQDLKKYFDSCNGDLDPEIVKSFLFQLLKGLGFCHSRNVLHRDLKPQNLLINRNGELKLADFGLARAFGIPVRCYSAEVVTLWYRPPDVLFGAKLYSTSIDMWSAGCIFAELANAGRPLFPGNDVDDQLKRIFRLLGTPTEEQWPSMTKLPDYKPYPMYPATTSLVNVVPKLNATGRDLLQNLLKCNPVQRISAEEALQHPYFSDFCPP
Chain of Cyclin-dependent kinase 5/CDK5 activator 1 (Q15078 whole entry, further chain): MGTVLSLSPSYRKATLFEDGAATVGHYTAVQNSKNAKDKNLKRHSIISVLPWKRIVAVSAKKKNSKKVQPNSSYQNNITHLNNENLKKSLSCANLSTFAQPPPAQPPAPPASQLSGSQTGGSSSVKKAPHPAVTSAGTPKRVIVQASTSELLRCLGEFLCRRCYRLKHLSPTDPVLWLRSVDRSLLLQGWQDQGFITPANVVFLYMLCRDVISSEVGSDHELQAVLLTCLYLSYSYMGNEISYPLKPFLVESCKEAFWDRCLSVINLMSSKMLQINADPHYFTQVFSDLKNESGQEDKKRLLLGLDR

HeLa = assay: HeLa cell cytotoxicity, dose response, cytotoxicity control, 24 h, cherry-picked samples (AID 504726); type: functional, cell-based; settings: Homo sapiens;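 further: potency for cytotoxicity as loss of luminescence signal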
Nonstructural protein 1 = Nonstructural protein 1 (Influenza A virus, UniProt Q194T2); type: functional, Influenza A virus (A/California/07/2009(H1N1))
Chain of Nonstructural protein 1 (Q194T2 whole entry): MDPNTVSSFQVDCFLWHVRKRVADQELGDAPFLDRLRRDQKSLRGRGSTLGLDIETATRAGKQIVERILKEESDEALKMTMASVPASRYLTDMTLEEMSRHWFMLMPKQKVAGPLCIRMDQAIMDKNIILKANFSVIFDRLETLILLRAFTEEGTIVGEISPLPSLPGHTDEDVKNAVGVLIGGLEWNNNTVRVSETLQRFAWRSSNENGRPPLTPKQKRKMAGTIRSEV

ORF 73 = ORF 73 (Human herpesvirus 8, UniProt O40947); assay: inhibitors of C-LANA binding to LBS DNA, dose response, biochemical, fluorescence polarization, cherry-picked samples (AID 504725); parameters: species or system Human gammaherpesvirus 8;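 further: fluorescence polarization of a labeled DNA duplex reporting LANA DNA binding; potency is for inhibitors that block LANA binding to the DNA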
Chain of ORF 73 (O40947 whole entry): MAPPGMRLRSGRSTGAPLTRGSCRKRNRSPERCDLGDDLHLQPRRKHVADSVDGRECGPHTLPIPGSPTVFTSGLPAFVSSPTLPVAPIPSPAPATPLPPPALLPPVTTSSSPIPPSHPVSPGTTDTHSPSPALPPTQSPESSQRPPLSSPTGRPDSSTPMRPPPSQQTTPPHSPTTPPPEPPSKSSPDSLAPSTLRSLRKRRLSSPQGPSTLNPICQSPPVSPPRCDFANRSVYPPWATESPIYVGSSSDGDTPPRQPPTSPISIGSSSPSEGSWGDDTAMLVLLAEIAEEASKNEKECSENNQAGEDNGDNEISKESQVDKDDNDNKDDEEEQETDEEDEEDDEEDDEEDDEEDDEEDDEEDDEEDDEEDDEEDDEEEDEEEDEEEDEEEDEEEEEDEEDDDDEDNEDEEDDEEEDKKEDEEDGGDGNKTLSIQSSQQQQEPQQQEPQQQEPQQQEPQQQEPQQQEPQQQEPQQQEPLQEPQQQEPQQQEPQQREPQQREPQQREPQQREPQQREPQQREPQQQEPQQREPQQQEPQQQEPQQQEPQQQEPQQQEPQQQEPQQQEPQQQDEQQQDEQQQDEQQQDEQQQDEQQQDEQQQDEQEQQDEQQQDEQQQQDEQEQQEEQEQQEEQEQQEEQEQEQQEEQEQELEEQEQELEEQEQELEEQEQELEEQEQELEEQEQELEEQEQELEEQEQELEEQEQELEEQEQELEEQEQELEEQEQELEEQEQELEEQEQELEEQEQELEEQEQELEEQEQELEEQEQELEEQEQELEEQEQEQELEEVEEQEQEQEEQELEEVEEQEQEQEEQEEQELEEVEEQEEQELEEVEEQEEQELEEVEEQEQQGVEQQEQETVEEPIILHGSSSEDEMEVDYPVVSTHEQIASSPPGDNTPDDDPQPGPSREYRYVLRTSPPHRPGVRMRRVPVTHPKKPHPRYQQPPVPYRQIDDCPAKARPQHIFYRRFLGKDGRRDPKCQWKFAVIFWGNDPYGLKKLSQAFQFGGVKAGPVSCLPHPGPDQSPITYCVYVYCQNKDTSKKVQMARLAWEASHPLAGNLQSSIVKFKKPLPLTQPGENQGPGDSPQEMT

[6] = molecular target: Cystic fibrosis transmembrane conductance regulator/Golgi-associated PDZ and coiled-coil motif-containing protein (Homo sapiens, UniProt P13569+Q9HD26); assay: CAL PDZ peptide-binding inhibitors, dose response, biochemical, fluorescence polarization, Cerulean-tagged CAL PDZ, cherry-picks (AID 504773)
Keap1/Nrf2 = Keap1/Nrf2 (Homo sapiens, UniProt Q14145); assay: Keap1-Nrf2 protein-protein interaction inhibitors, dose response, biochemical, fluorescence polarization, cherry-picked samples (AID 588683)
Chain of Keap1/Nrf2 (Q16236 whole entry): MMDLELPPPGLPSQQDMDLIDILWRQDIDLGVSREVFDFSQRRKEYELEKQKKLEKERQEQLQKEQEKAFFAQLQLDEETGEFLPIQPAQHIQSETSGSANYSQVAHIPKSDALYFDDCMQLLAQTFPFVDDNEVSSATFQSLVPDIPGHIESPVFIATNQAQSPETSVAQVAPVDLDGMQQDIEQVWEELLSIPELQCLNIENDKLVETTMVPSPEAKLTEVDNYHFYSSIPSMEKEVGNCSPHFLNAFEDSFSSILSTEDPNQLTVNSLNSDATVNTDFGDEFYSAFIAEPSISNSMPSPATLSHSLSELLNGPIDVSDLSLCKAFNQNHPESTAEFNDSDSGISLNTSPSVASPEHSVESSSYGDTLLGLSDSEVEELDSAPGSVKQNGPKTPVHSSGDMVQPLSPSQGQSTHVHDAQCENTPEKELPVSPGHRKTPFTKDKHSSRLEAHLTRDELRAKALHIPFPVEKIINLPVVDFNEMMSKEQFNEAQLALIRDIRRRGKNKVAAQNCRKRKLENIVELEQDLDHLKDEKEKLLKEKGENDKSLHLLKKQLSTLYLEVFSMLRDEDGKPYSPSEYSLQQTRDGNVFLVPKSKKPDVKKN
Chain of Keap1/Nrf2 (Q14145 whole entry): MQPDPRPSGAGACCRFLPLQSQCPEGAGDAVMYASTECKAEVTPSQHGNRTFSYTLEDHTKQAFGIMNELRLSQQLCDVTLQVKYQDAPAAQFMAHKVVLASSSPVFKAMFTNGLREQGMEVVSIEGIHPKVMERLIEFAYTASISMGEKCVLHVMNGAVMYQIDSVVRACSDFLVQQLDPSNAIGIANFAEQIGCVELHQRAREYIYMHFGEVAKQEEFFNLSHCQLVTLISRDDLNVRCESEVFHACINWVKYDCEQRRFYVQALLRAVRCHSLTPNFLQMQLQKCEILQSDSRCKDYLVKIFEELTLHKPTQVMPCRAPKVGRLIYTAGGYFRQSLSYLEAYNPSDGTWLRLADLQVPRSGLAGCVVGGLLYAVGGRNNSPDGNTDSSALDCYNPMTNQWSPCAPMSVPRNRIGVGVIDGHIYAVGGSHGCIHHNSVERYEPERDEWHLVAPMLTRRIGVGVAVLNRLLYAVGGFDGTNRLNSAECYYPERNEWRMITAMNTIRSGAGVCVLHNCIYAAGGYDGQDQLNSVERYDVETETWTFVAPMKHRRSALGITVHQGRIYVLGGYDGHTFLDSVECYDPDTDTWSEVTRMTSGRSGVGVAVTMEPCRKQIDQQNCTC

[7] = molecular target: UDP-galactopyranose mutase (Mycobacterium tuberculosis, UniProt P9WIQ1); assay: Inhibitors of Mycobacterium tuberculosis UDP-galactopyranose mutase (UGM) enzyme Measured in Biochemical System Using Plate Reader - 2105-02_Inhibitor_Dose_CherryPick_Activity. [Related pubchem assays (depositor defined):AID504439]
Chain of UDP-galactopyranose mutase (P9WIQ1 whole entry): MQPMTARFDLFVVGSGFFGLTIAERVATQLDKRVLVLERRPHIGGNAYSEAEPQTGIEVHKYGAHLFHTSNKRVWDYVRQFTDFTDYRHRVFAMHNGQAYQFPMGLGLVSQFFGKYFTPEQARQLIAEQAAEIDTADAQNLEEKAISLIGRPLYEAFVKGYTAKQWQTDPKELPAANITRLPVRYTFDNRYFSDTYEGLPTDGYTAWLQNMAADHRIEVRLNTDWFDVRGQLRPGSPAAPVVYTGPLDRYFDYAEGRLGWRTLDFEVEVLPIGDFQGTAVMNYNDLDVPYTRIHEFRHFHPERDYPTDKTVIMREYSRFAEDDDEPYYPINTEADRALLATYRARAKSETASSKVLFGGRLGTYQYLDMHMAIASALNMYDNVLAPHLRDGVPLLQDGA

[8] = molecular target: Signal transducer and activator of transcription 3 (Homo sapiens, UniProt P40763); assay: STAT3 activators, late-stage profile, late-stage follow-up, cell-based, STAT1 reporter, BCL3 qPCR, cytotoxicity, panel member STAT3 Activation (AID 2049)
[9] = molecular target: T3, Kappa-type opioid receptor (Homo sapiens, UniProt P41145); assay: SAR analysis of small molecule antagonists of the kappa opioid receptor via a luminescent beta-arrestin assay - Set 4. [Related pubchem assays (depositor defined):AID1777, AID1778, AID1785, AID1786, AID1966, AID2133, AID2136, AID2285]; type: functional
T3 sequence (P41145 whole entry): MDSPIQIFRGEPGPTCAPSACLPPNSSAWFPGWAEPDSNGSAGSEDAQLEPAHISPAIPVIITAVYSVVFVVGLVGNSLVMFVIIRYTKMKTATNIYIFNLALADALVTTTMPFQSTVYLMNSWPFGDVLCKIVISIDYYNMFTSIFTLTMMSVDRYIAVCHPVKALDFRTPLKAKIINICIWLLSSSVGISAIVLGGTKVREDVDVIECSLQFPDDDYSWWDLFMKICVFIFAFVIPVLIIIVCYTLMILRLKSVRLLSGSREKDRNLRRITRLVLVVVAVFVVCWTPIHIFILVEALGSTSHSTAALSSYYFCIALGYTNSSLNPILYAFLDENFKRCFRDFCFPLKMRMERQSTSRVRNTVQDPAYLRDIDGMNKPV

Mu-type opioid receptor = Mu-type opioid receptor (Homo sapiens, UniProt P35372); assay: SAR Analysis of Antagonists of the MOR Receptor using an Image-Based Assay - Set 3. [Related pubchem assays (depositor defined):AID1777, AID1785, AID1786, AID1966, AID2133, AID2136, AID2284, AID2285, AID2420]; type: functional
[10] = molecular target: Delta-type opioid receptor (Homo sapiens, UniProt P41143); assay: SAR Analysis of Antagonists of the DOR Receptor using an Image-Based Assay - Set 3. [Related pubchem assays (depositor defined):AID1777, AID1785]; type: functional;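 further: U2OS cells expressing DOR1 and beta-arrestin GFP stimulated with 100 nM SNC80; imaging of GFP-tagged beta-arrestin moving into spots after receptor activation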
Chain of Delta-type opioid receptor (P41143 whole entry): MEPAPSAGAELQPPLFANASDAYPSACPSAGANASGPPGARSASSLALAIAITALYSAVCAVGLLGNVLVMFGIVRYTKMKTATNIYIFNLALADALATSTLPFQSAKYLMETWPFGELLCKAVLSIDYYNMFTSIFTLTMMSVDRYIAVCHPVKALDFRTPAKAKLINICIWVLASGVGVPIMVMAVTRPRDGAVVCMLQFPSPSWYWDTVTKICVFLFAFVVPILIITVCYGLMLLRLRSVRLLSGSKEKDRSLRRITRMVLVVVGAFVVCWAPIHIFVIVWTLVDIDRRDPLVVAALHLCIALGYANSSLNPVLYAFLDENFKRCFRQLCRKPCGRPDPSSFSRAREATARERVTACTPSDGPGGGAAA

[11] = molecular target: T3, Kappa-type opioid receptor; assay: SAR analysis of small molecule antagonists of the kappa opioid receptor via a luminescent beta-arrestin assay - Set 6. [Related pubchem assays (depositor defined):AID1777, AID1778, AID1785, AID1786, AID1966, AID2133, AID2136, AID2285]; type: functional
[12] = molecular target: T3, Kappa-type opioid receptor; assay: SAR analysis of Antagonists of the Kappa Opioid Receptor (KOR) using an Image-Based Assay - Set 4. [Related pubchem assays (depositor defined):AID1777, AID1785]; type: functional

Cc1c(C(=O)OCc2ccccc2)[nH]c2c1C(=O)CC(c1ccco1)C2 (stereo not drawn)
AC50 [1]: 258 nM (active) | IC50 (Estrogen receptor beta [2]): 15.1 µM (active) | IC50 [3]: > 80 µM (inactive) | IC50 (Estrogen receptor): 23 µM (active) | IC50 (Estrogen receptor beta [4]): 9.51 µM (not active)

COc1ccc2nc3c(cc2c1)c(NC(=O)C1CCCO1)nn3CC(C)C (stereo not drawn)
AC50 [5]: 31.2 µM (active)

CCNc1ccc2noc3c2c1C(=O)c1ccccc1-3
AC50 (HeLa): 42.9 µM (active) | IC50 (Nonstructural protein 1): 62 µM (active) | AC50 (ORF 73): 1.03 µM (active) | AC50 [6]: 4.08 µM (active) | AC50 (Keap1/Nrf2): 866 nM (active) | AC50 [7]: 609 nM (active)

COc1cc(NC(=O)c2cc(C)on2)c(OC)cc1Cl
EC50 [8]: 6.98 µM (active)

CC(C)N(CCNC(=O)c1ccc(CNS(=O)(=O)c2ccc(-c3ccccc3)cc2)cc1)Cc1ccccc1
IC50 [9]: 1.33 µM (active) | IC50 (Mu-type opioid receptor): > 32 µM (inactive) | IC50 [10]: > 32 µM (inactive) | IC50 [11]: > 20 µM (inactive) | IC50 [12]: 432 nM (active)
